Laboratory results reported in patent US20260125360A1, “HERBICIDAL IMIDAZOLE COMPOUNDS” (SYNGENTA CROP PROTECTION AG, priority 2022, published 2026).

Key:
Type in all cases: in vivo
Details in all cases: 250 g/ha, evaluated after 13 days
[1] = system: Echinochloa crus-galli (ECHCG); assay: Post-emergence herbicide glasshouse test
Protocol: (§1) Seeds of a variety of test species are sown in standard soil in pots Amaranthus palmeri (AMAPA), Amaranthus retoflexus (AMARE), Echinochloa crus-galli (ECHCG), Ipomoea hederacea (IPOHE)). After cultivation for one day (pre-emergence) or after 8 days cultivation (post-emergence) under controlled conditions in a glasshouse (at 24/16° C., day/night; 14 hours light; 65% humidity), the plants are sprayed with an aqueous spray solution derived from the formulation of the technical active ingredient in acetone/water (50:50) solution containing 0.5% Tween 20 (polyoxyethelyene sorbitan monolaurate, CAS RN 9005-64-5). Compounds are applied at 250 g/ha unless otherwise stated. The test plants are then grown in a glasshouse under controlled conditions in a glasshouse (at 24/16° C., day/night; 14 hours light; 65% humidity) and watered twice daily. After 13 days for pre and post-emergence, the test is evaluated for the percentage damage caused to the plant. The biological activities are shown in the following table on a five-point scale (5=81-100%; 4=61-80%; 3=41-60%; 2=21-40%; 1=0-20%).

[2] = system: Amaranthus palmeri (AMAPA); assay: Post-emergence herbicide glasshouse test
Protocol: as §1

[3] = system: Ipomoea hederacea (IPOHE); assay: Post-emergence herbicide glasshouse test
Protocol: as §1

[4] = system: Amaranthus retoflexus (AMARE); assay: Post-emergence herbicide glasshouse test
Protocol: as §1

[5] = system: Echinochloa crus-galli (ECHCG); assay: Pre-emergence herbicide glasshouse test
Protocol: as §1

[6] = system: Amaranthus palmeri (AMAPA); assay: Pre-emergence herbicide glasshouse test
Protocol: as §1

[7] = system: Ipomoea hederacea (IPOHE); assay: Pre-emergence herbicide glasshouse test
Protocol: as §1

[8] = system: Amaranthus retoflexus (AMARE); assay: Pre-emergence herbicide glasshouse test
Protocol: as §1

SMILES | percentage damage caused to the plant, ECHCG (five-point scale) [1] | percentage damage caused to the plant, AMAPA (five-point scale) [2] | percentage damage caused to the plant, IPOHE (five-point scale) [3] | percentage damage caused to the plant, AMARE (five-point scale) [4] | percentage damage caused to the plant, ECHCG (five-point scale) [5] | percentage damage caused to the plant, AMAPA (five-point scale) [6] | percentage damage caused to the plant, IPOHE (five-point scale) [7] | percentage damage caused to the plant, AMARE (five-point scale) [8]
N#Cc1ccc(Cn2cc(C(F)(F)F)nc2-c2ccc(C(F)(F)F)cc2)s1 [Compound 1.001] | 2 (2=21-40%) | 4 (4=61-80%) | 3 (3=41-60%) | 4 (4=61-80%) | 2 (2=21-40%) | 5 (5=81-100%) | 2 (2=21-40%) | 4 (4=61-80%)
FC(F)(F)c1ccc(-c2nc(C(F)(F)F)cn2Cc2nsc(Cl)n2)cc1 [Compound 1.002] | 1 (1=0-20%) | 1 (1=0-20%) | 3 (3=41-60%) | 2 (2=21-40%) | 1 (1=0-20%) | 1 (1=0-20%) | 1 (1=0-20%) | –
Cn1cnc(Cn2cc(C(F)(F)F)nc2-c2ccc(C(F)(F)F)cc2)n1 [Compound 1.003, 1-methyl-3-[[4-(trifluoromethyl)-2-[4-(trifluoromethyl)phenyl]imidazol-1-yl]methyl]-1,2,4-triazole] | 4 (4=61-80%) | 4 (4=61-80%) | 5 (5=81-100%) | 4 (4=61-80%) | 5 (5=81-100%) | 5 (5=81-100%) | 5 (5=81-100%) | 5 (5=81-100%)
CC(C)(C)c1nc(Cn2cc(C(F)(F)F)nc2-c2ccc(C(F)(F)F)cc2)no1 [Compound 1.004] | 1 (1=0-20%) | 1 (1=0-20%) | 2 (2=21-40%) | 1 (1=0-20%) | 1 (1=0-20%) | 1 (1=0-20%) | 1 (1=0-20%) | 1 (1=0-20%)
Cc1noc(C)c1Cn1cc(C(F)(F)F)nc1-c1ccc(C(F)(F)F)cc1 [Compound 1.005] | 1 (1=0-20%) | 1 (1=0-20%) | 1 (1=0-20%) | 1 (1=0-20%) | 1 (1=0-20%) | 5 (5=81-100%) | 1 (1=0-20%) | 5 (5=81-100%)
Cc1nonc1Cn1cc(C(F)(F)F)nc1-c1ccc(C(F)(F)F)cc1 [Compound 1.006] | 1 (1=0-20%) | 1 (1=0-20%) | 1 (1=0-20%) | 1 (1=0-20%) | 1 (1=0-20%) | 1 (1=0-20%) | 1 (1=0-20%) | 1 (1=0-20%)
Cc1nnc(Cn2cc(C(F)(F)F)nc2-c2ccc(C(F)(F)F)cc2)s1 [Compound 1.007] | 5 (5=81-100%) | 5 (5=81-100%) | 5 (5=81-100%) | 5 (5=81-100%) | 5 (5=81-100%) | 5 (5=81-100%) | 5 (5=81-100%) | 5 (5=81-100%)
Cc1noc(Cn2cc(C(F)(F)F)nc2-c2ccc(C(F)(F)F)cc2)n1 [Compound 1.008] | 2 (2=21-40%) | 4 (4=61-80%) | 4 (4=61-80%) | 4 (4=61-80%) | 1 (1=0-20%) | 5 (5=81-100%) | 3 (3=41-60%) | 5 (5=81-100%)
FC(F)(F)c1ccc(-c2nc(C(F)(F)F)cn2Cc2ccno2)cc1 [Compound 1.009] | 1 (1=0-20%) | 1 (1=0-20%) | 3 (3=41-60%) | 2 (2=21-40%) | 1 (1=0-20%) | 1 (1=0-20%) | 1 (1=0-20%) | 1 (1=0-20%)
Cc1nc(Cn2cc(C(F)(F)F)nc2-c2ccc(C(F)(F)F)cc2)cs1 [Compound 1.010] | 1 (1=0-20%) | 1 (1=0-20%) | 3 (3=41-60%) | 2 (2=21-40%) | 1 (1=0-20%) | 2 (2=21-40%) | 2 (2=21-40%) | 5 (5=81-100%)
COCCc1noc(Cn2cc(C(F)(F)F)nc2-c2ccc(C(F)(F)F)cc2)n1 [Compound 1.011] | 1 (1=0-20%) | 1 (1=0-20%) | 1 (1=0-20%) | 1 (1=0-20%) | 1 (1=0-20%) | 1 (1=0-20%) | 1 (1=0-20%) | 1 (1=0-20%)
Cc1nc(Cn2cc(C(F)(F)F)nc2-c2ccc(C(F)(F)F)cc2)co1 [Compound 1.012] | 1 (1=0-20%) | 1 (1=0-20%) | 3 (3=41-60%) | 1 (1=0-20%) | 1 (1=0-20%) | – | 1 (1=0-20%) | 2 (2=21-40%)
Cc1cc(Cn2cc(C(F)(F)F)nc2-c2ccc(C(F)(F)F)cc2)no1 [Compound 1.013] | 4 (4=61-80%) | 5 (5=81-100%) | 4 (4=61-80%) | 4 (4=61-80%) | 5 (5=81-100%) | 5 (5=81-100%) | 5 (5=81-100%) | 5 (5=81-100%)
Cn1cc(Cn2cc(C(F)(F)F)nc2-c2ccc(C(F)(F)F)cc2)c(C(F)(F)F)n1 [Compound 1.014] | 1 (1=0-20%) | 1 (1=0-20%) | 1 (1=0-20%) | 1 (1=0-20%) | 1 (1=0-20%) | 1 (1=0-20%) | 1 (1=0-20%) | 1 (1=0-20%)
Cn1cnc(Cn2cc(C(F)F)nc2-c2cnc(Cl)c(F)c2)n1 [Compound 1.015, 2-chloro-5-[4-(difluoromethyl)-1-[(1-methyl-1,2,4-triazol-3-yl)methyl]imidazol-2-yl]-3-fluoro-pyridine] | 3 (3=41-60%) | 5 (5=81-100%) | 5 (5=81-100%) | 5 (5=81-100%) | 4 (4=61-80%) | 5 (5=81-100%) | 5 (5=81-100%) | 5 (5=81-100%)
